Data from US5834453A, “Methods for the manufacture and use of antimicrobial sterol conjugates” (Lehigh University, priority 1997, dated 1998).
≈ marks a conversion by molar mass, not a printed value.

What was measured:
[1] = test system: S. epidermidis (12228); test: MIC, micro-broth dilution; format: cell-based; conditions: Staphylococcus epidermidis, 35° C., 24 hours, read-out: ANTIMICROBIAL ACTIVITY (MIC)
Procedure: (§1) The antimicrobial activity of the compounds according to the present invention were compared with the results obtained for squalamine as reported in Proc. Nat. Acad. Sci. USA 90:1354 (1993), supra, the disclosure of which is incorporated in toto herein. The data reported in the following table is the minimum inhibitory concentration (MIC) required for complete inhibition of microbial growth. The MIC was determined utilizing known micro-broth dilution methods in which inocula of 10^6 /ml of the test organism were incubated in 0.5× trypticase soy broth at 35° C. for 24 hours. MIC's were also tested under various pH conditions, with calcium chloride or magnesium chloride, or with immobilized horse serum.
(§2) The numbers in parentheses contained in the table correspond to accession numbers with the American Type Culture Collection (reference strains were either obtained from the American Type Culture Collection or from the Microbiology Laboratory at Memorial Sloan-Kettering Cancer Center; Bacterial strains were maintained on Columbia 5% sheep blood agar plates, and fungi were maintained on Sabouraud Dextrose agar plates).

[2] = test system: S. aureus (25923); test: MIC, micro-broth dilution; format: cell-based; conditions: Staphylococcus aureus, 35° C., 24 hours, read-out: ANTIMICROBIAL ACTIVITY (MIC)
Procedure: as §1, §2

[3] = test system: P. vulgaris (13315); test: MIC, micro-broth dilution; format: cell-based; conditions: Proteus vulgaris, 35° C., 24 hours, read-out: ANTIMICROBIAL ACTIVITY (MIC)
Procedure: as §1, §2

[4] = test system: P. aeruginosa (2853); test: MIC, micro-broth dilution; format: cell-based; conditions: Pseudomonas aeruginosa, 24 h, read-out: ANTIMICROBIAL ACTIVITY (MIC)
Procedure: as §1, §2

[5] = test system: E. coli (25922); test: MIC, micro-broth dilution; format: cell-based; conditions: Escherichia coli, 35° C., 24 hours, read-out: ANTIMICROBIAL ACTIVITY (MIC)
Procedure: as §1, §2

[6] = test system: S. marcescens (13880); test: MIC, micro-broth dilution; format: cell-based; conditions: Serratia marcescens, 24 h, read-out: ANTIMICROBIAL ACTIVITY (MIC)
Procedure: as §1, §2

[7] = test system: C. albicans (90028); test: MIC, micro-broth dilution; format: cell-based; conditions: Candida albicans, 35° C., 24 hours, read-out: ANTIMICROBIAL ACTIVITY (MIC)
Procedure: as §1, §2

[8] = test system: C. neoformans (M68979); test: MIC, micro-broth dilution; format: cell-based; conditions: Cryptococcus neoformans, 24 h, read-out: ANTIMICROBIAL ACTIVITY (MIC)
Procedure: as §1, §2

[9] = test system: S. aureus (29213); test: MIC, micro-broth dilution; format: cell-based; conditions: Staphylococcus aureus, 24 h, read-out: ANTIMICROBIAL ACTIVITY (MIC)
Procedure: as §1, §2

[10] = Hemolytic activity, minimal hemolytic concentration (MHC); format: cell-based, sheep; conditions: for MCC at 24 h: sheep, red blood cells;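 on MCC: MCC here is the minimal hemolytic concentration (MHC)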
Procedure: Hemolytic activity of the squalamine mimics according to the present invention were also studied by incubating sheep red blood cells for 24 hours at 37° C. in saline (final concentration of 0.5%) with or without respective concentrations of the squalamine mimics. The minimal hemolytic concentration (MHC) was determined as the lowest concentration of a mimic that raised visible hemolysis.

[11] = test system: E. faecalis (29212); test: MIC, micro-broth dilution; format: cell-based; conditions: Enterococcus faecalis, 35° C., 24 hours, read-out: ANTIMICROBIAL ACTIVITY (MIC)
Procedure: as §1, §2

[12] = test system: S. pneumoniae (6305); test: MIC, micro-broth dilution; format: cell-based; conditions: Streptococcus pneumoniae, 35° C., 24 hours, read-out: ANTIMICROBIAL ACTIVITY (MIC)
Procedure: as §1, §2

[13] = test system: A. fumigatus (H1120); test: MIC, micro-broth dilution; format: cell-based; conditions: Aspergillus fumigatus, 35° C., 24 hours, read-out: ANTIMICROBIAL ACTIVITY (MIC)
Procedure: as §1, §2

[14] = test system: K. pneumoniae (13883); test: MIC, micro-broth dilution; format: cell-based; conditions: Klebsiella pneumoniae, 24 h, read-out: ANTIMICROBIAL ACTIVITY (MIC)
Procedure: as §1, §2

[15] = test system: C. neoformans (90012); test: MIC, micro-broth dilution; format: cell-based; conditions: Cryptococcus neoformans, 24 h, read-out: ANTIMICROBIAL ACTIVITY (MIC)
Procedure: as §1, §2

[16] = test system: S. aureus (H20809); test: MIC, micro-broth dilution; format: cell-based; conditions: Staphylococcus aureus, 24 h, read-out: ANTIMICROBIAL ACTIVITY (MIC)
Procedure: as §1, §2

[17] = test system: S. pyrogenes (19615); test: MIC, micro-broth dilution; format: cell-based; conditions: 24 h, read-out: ANTIMICROBIAL ACTIVITY (MIC)
Procedure: as §1, §2

[18] = test system: E. faecium (T6480-9); test: MIC, micro-broth dilution; format: cell-based; conditions: Enterococcus faecium, 35° C., 24 hours, read-out: ANTIMICROBIAL ACTIVITY (MIC)
Procedure: as §1, §2

[19] = test system: A. fumigatus (H29709); test: MIC, micro-broth dilution; format: cell-based; conditions: Aspergillus fumigatus, 35° C., 24 hours, read-out: ANTIMICROBIAL ACTIVITY (MIC)
Procedure: as §1, §2

[20] = test system: E. cloacae (13047); test: MIC, micro-broth dilution; format: cell-based; conditions: Enterobacter cloacae, 35° C., 24 hours, read-out: ANTIMICROBIAL ACTIVITY (MIC)
Procedure: as §1, §2

[21] = test system: P. aeruginosa (10145); test: MIC, micro-broth dilution; format: cell-based; conditions: Pseudomonas aeruginosa, 35° C., 24 hours, read-out: ANTIMICROBIAL ACTIVITY (MIC)
Procedure: as §1, §2

[22] = test system: S. agalactiae (13813); test: MIC, micro-broth dilution; format: cell-based; conditions: Streptococcus agalactiae, 35° C., 24 hours, read-out: ANTIMICROBIAL ACTIVITY (MIC)
Procedure: as §1, §2

Row | SMILES | MIC [1] | MIC [2] | MIC [3] | MIC [4] | MIC [5] | MIC [6] | MIC [7] | MIC [8] | MIC [9] | MIC [11] | MIC [12] | MIC [13] | MIC [14] | MIC [15] | MIC [16] | MIC [17] | MIC [18] | MIC [19] | MIC [20] | MIC [21] | further results
1 | C[C@H](C(=O)NCCCNCCCCNCCCN)[C@H]1CC[C@H]2[C@@H]3CC=C4C[C@@H](O)CC[C@]4(C)[C@H]3CC[C@]12C [SM-1, 23,24-Bisnor-3β-ol-5-cholenic acid 3-ol spermine conjugate] | 1.56 µg/mL (≈ 2.94 µM) | 3.13 µg/mL (≈ 5.9 µM) | 25 µg/mL (≈ 47.1 µM) | 1.56 µg/mL (≈ 2.94 µM) | 12.5 µg/mL (≈ 23.5 µM) | > 100 µg/mL | 100 µg/mL (≈ 188 µM) | 6.25 µg/mL (≈ 11.8 µM) | 6.25 µg/mL (≈ 11.8 µM) | – | – | – | – | – | – | – | – | – | – | – | minimal hemolytic concentration (MHC) at 24 h ([10]; sheep red blood cells, 24 hours at 37° C. in saline): 100 µg/mL
2 | C[C@H](C(=O)NCCNCCNCCN)[C@H]1CC[C@H]2[C@@H]3CC=C4C[C@@H](O)CC[C@]4(C)[C@H]3CC[C@]12C [SM-5] | 25 µg/mL (≈ 52.7 µM) | 50 µg/mL (≈ 105 µM) | > 100 µg/mL | 25 µg/mL (≈ 52.7 µM) | 100 µg/mL (≈ 211 µM) | > 100 µg/mL | > 100 µg/mL | > 100 µg/mL | 100 µg/mL (≈ 211 µM) | > 100 µg/mL | > 100 µg/mL | > 100 µg/mL | > 100 µg/mL | > 100 µg/mL | > 100 µg/mL | 6.25 µg/mL (≈ 13.2 µM) | > 100 µg/mL | > 100 µg/mL | > 100 µg/mL | 25 µg/mL (≈ 52.7 µM) | MIC [22]: > 100 µg/mL; MCC at 24 h [10]: > 100 µg/mL
3 | C[C@H](CCC(=O)NCCCNCCCCNCCCN)[C@H]1CC[C@H]2[C@@H]3CC[C@@H]4C[C@H](OS(=O)(=O)O)CC[C@]4(C)[C@H]3C[C@H](OS(=O)(=O)O)[C@]12C [SM-8] | 25 µg/mL (≈ 33.9 µM) | 25 µg/mL (≈ 33.9 µM) | 50 µg/mL (≈ 67.8 µM) | 25 µg/mL (≈ 33.9 µM) | > 100 µg/mL | > 100 µg/mL | 100 µg/mL (≈ 136 µM) | 50 µg/mL (≈ 67.8 µM) | 25 µg/mL (≈ 33.9 µM) | > 100 µg/mL | 50 µg/mL (≈ 67.8 µM) | > 100 µg/mL | 50 µg/mL (≈ 67.8 µM) | 50 µg/mL (≈ 67.8 µM) | 25 µg/mL (≈ 33.9 µM) | 6.25 µg/mL (≈ 8.48 µM) | 100 µg/mL (≈ 136 µM) | > 100 µg/mL | > 100 µg/mL | 100 µg/mL (≈ 136 µM) | MIC [22]: 50 µg/mL (≈ 67.8 µM); MCC at 24 h [10]: > 100 µg/mL
4 | C[C@H](CCCNCCCCN)[C@H]1CC[C@H]2[C@@H]3CC[C@@H]4C[C@H](O)CC[C@]4(C)[C@H]3C[C@H](O)[C@]12C [SM-9H] | 1.56 µg/mL (≈ 3.48 µM) | 1.56 µg/mL (≈ 3.48 µM) | 12.5 µg/mL (≈ 27.9 µM) | 6.25 µg/mL (≈ 13.9 µM) | 25 µg/mL (≈ 55.7 µM) | > 100 µg/mL | 3.13 µg/mL (≈ 6.98 µM) | 0.78 µg/mL (≈ 1.74 µM) | 1.56 µg/mL (≈ 3.48 µM) | 6.25 µg/mL (≈ 13.9 µM) | 6.25 µg/mL (≈ 13.9 µM) | 12.5 µg/mL (≈ 27.9 µM) | 50 µg/mL (≈ 111 µM) | 0.78 µg/mL (≈ 1.74 µM) | 3.13 µg/mL (≈ 6.98 µM) | 0.78 µg/mL (≈ 1.74 µM) | 25 µg/mL (≈ 55.7 µM) | 6.25 µg/mL (≈ 13.9 µM) | 100 µg/mL (≈ 223 µM) | 12.5 µg/mL (≈ 27.9 µM) | MIC [22]: 3.13 µg/mL (≈ 6.98 µM); MCC at 24 h [10]: 50 µg/mL
